pIC50: −log10 of the molar value.
Tests used:
[1] = tested on: C4-2B prostate cancer cells; assay: Laser-scanning confocal NIR imaging of cellular uptake and localization; assay type: cell-based, human; conditions: C4-2B PCa cells
Text: Moreover, the two dyes also have strong emission at 820-860 nm upon excitation at 750-780 nm, which can be easily detected and visualized by NIR imaging equipment and laser-scanning confocal microscopes. Here, we resorted to the use of Zeiss LSM 510 confocal microscope as the imaging equipment. Although cellular uptake of the conjugate was uncertain, due to the similarity in structure, MHI-clorgyline conjugates were expected to have similar fluorescence properties as the NIR dye itself. Therefore, NIR imaging with laser-scanning confocal microscope was used to examine the cellular uptake of MHI-clorgyline in human prostate epithelial cancer cells (C4-2B). This cell line was selected due to its high levels of the expressed MAO-A.
(§1) An imaging study with the newly synthesized MHI-clorgyline 10 was carried out (FIG. 11).

[2] = target: T1, MAO A (Homo sapiens, UniProt P21397); assay: MAO A inhibition assay in C4-2B cells with radiolabeled substrate (C-14 serotonin); assay type: cell-based
T1 construct: This cell line was selected due to its high levels of the expressed MAO-A; endogenous in cells; host or cells: C4-2B human prostate cancer cells
T1 sequence (P21397 1-527): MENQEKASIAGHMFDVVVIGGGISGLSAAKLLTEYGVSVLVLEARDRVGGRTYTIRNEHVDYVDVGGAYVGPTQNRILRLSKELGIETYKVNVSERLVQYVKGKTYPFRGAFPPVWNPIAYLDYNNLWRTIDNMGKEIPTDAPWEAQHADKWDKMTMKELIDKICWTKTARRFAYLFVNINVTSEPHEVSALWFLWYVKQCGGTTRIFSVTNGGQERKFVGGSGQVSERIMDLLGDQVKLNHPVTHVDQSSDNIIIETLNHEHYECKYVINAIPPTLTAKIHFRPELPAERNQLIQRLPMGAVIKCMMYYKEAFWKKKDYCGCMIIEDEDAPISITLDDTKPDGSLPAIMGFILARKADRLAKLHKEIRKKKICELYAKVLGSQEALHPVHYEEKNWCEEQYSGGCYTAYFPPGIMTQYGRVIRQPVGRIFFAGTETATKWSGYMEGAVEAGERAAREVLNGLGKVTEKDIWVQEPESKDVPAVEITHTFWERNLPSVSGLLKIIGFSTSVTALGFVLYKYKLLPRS
Protocol: Compound 10 was pre-incubated with 1×10^6 prostate C4-2B cells at 37° C. for 20 min. Then, MAO A substrate C-14 serotonin was added to the incubation solution for 37° C. 20 min. At the end of the incubation, the reaction product was extracted and the radioactivity was counted. The MAO-A activity was expressed as […] product formed/20 min/mg protein. The activity without the presence of inhibitor, compound 10, was taken as 100%.
In order to test an inhibitory activity of the MHI-clorgyline 10, a standard MAO A inhibition assay was carried out in C4-2B cells using radiolabeled substrates.

[3] = tested on: live cells; assay: Preliminary imaging study of IR-783 dye in live cells; assay type: cell-based
Protocol: as §1

[4] = tested on: tumor xenografts and spontaneous tumors in transgenic mice; conditions: cited from earlier work
[5] = tested on: control and MAO-A-overexpressing PC-3 tumor xenografts; assay: In vivo and ex vivo MHI-148 NIR imaging of PC-3 tumor xenografts; set-up: species or system nude mice
Text: FIG. 19 MAO-A enhanced NIR dye uptake in PC-3 tumor xenografts. (A) Representative in vivo MHI-148 NIR imaging (i.p. injection, 10 nmol/20 g) of nude mice subcutaneously implanted with control (left flank) and MAO-A-overexpressing (right flank) PC-3 cells. Arrows point to tumor xenografts. […] (C) Quantitation of tumor NIR intensity in (A) by determining total emission divided by tumor weight (5 mice). *, p<0.05.
A class of fluorescent heptamethine cyanines with near-infrared (NIR) emission maxima, such as MHI-148 dye, which has been identified recently, are non-toxic and have dual functions as tumor-specific targeting and imaging modalities. These dyes, partially mediated by hypoxia, are specifically retained in cancer but not normal cells, and also in tumor xenografts as well as spontaneous tumors in transgenic mice. […] This would allow the development and validation of novel PCa-seeking MAO-A inhibitors with acquired synergistic tumor-targeting abilities as new agents for PCa therapies with minimal systemic host toxicity.

[6] = tested on: human prostate cancer cells; assay: Growth of prostate cancer cells in vitro; assay type: cell-based
Text: (§2) In the present invention, it was unexpectedly discovered that increase of MAO-A activity or expression is correlated with the progression of human prostate cancer. […] This finding establishes MAOs as a target for cancer.

[7] = tested on: tumor xenografts; assay: Growth of tumor xenografts in vivo
Text: as §2

C#CCN(CCCOc1ccc(Cl)cc1Cl)CCCSC(=O)CCCCCN1/C(=C\C=C2/CCCC(/C=C/C3=[N+](CCCCCC(=O)O)c4ccccc4C3(C)C)=C2Cl)C(C)(C)c2ccccc21 [Compound 10]
subcellular localization ([1]; co-staining with mitochondria-specific dye): localized in the mitochondria
cellular accumulation ([1]; confocal imaging): rapid accumulation
pIC50 ([2]; 37° C., 20 min pre-incubation, C-14 serotonin substrate): 4.66
MAO A inhibitory activity compared with clorgyline ([2]; data not shown): lesser than that of clorgyline itself

CC1(C)C(=CC=C2CCCC(C=CC3=[N+](CCCCS(=O)(=O)[O-])c4ccccc4C3(C)C)=C2Cl)N(CCCCS(=O)(=O)[O-])c2ccccc21.[Na+] [IR-783]
subcellular localization [3]: co-localized in mitochondria
retention in cancer cells versus normal cells [4]: retained in cancer cells but not normal cells

CC1(C)C(/C=C/C2=C(Cl)C(=C/C=C3/N(CCCCCC(=O)O)c4ccccc4C3(C)C)/CCC2)=[N+](CCCCCC(=O)O)c2ccccc21 [MHI-148]
retention in cancer cells versus normal cells [4]: retained in cancer cells but not normal cells
NIR dye uptake in tumor xenografts ([5]; MAO-A-overexpressing vs control PC-3 xenografts, i.p. injection, 10 nmol/20 g): enhanced uptake
ex vivo NIR signal in tumor tissues versus organs ([5]; ex vivo NIR imaging, nude mice with PC-3 xenografts): Tumor tissues but not organs displayed strong signals

C#CCN(C)CCCOc1ccc(Cl)cc1Cl [clorgyline]
growth of human prostate cancer cells [6]: repressing the growth
growth of tumor xenografts [7]: repressing the growth
